Assay results from patent US5229131A, “Pulsatile drug delivery system” (priority 1991, dated 1993).
Structures can show the parent of a compound that is named as a salt. Where two headings read alike, the source gives them in different places.

How the values were obtained:
[1] = cited from earlier work
[2] = in vivo; conditions: dog, iv
Description: Single IV doses were given to each of a group of four beagle dogs: 5 mg of propranolol free base was dissolved in 3 ml sterile sodium chloride solution USP. The solution was infused over a 20 second period through an in-line millipore filter. Blood samples (1 ml) were withdrawn at desired intervals postinfusion. The IV results are shown as a " ." Similarly, blood plasma samples were withdrawn and analyzed for oral administration of 80 mg propranolol in immediate release form (" ") and the polymer coated dosage delivery form of section A. above ("+").
DDT is indicated by the release of citric acid from the drug-containing core which causes a spike in the pH time profile. The pH will remain depressed for the duration of the dissolution of the citric acid.
Blood samples (1 ml) were withdrawn at 5, 10, 15, 20, 30, 40, 50, 60, 70, 80, 90, 105, 120, 150, 180, 240, 300, 360 and 420 minutes after dosing for the immediate release dosage form. For the polymer coated tablets, the sampling schedule began at the time of coating dissolution (CDT). After dissolution, blood samples (1 ml) were withdrawn at 5, 15, 30, 45, 60, 90, 120, 190, 240, 300, 360 and 420 minutes.

[3] = in man; cited from earlier work
[4] = saturated solution; cited from earlier work
[5] = list of drugs with nonlinear kinetics

| SMILES | F [1, 5] | also measured |
| --- | --- | --- |
| CC(C)C[C@H]1C(=O)N2CCC[C@H]2[C@]2(O)O[C@](NC(=O)[C@@H]3C=C4c5cccc6[nH]c(Br)c(c56)C[C@H]4N(C)C3)(C(C)C)C(=O)N12 [Bromocriptine Mesylate] | 0.6 | – |
| CN/C(=N/CCSCc1nc[nH]c1C)NC#N [Cimetidine] | 0.7 | – |
| C#C[C@]1(O)CC[C@H]2[C@@H]3CCc4cc(O)ccc4[C@H]3CC[C@@]21C [Ethinylestradiol] | 0.4 | – |
| C[C@H]1C[C@@H]2[C@H]([C@@H](O)C[C@@]3(C)[C@H]2CC[C@]3(O)C(=O)CO)[C@@]2(C)C=CC(=O)C=C12 [Methylprednisolone] | 0.85 | – |
| C#C[C@]1(O)CC[C@H]2[C@@H]3CCC4=CC(=O)CC[C@@H]4[C@H]3CC[C@@]21C [Norethindrone] | 0.65 | – |
| C[C@]12C=CC(=O)C=C1CC[C@@H]1[C@@H]2C(=O)C[C@@]2(C)[C@H]1CC[C@]2(O)C(=O)CO [Prednisone] | – | F ([1]; in vivo): 0.85 |
| CC(C)NCC(O)COc1cccc2ccccc12 (stereo not shown) [propranolol] | – | half-life ([2]; half-life): 1.97 h; half-life ([2]; terminal phase half-life): ~2 h; biological half-life [3]: two to six |
| [Cl-].[Na+] [sodium chloride] | – | osmotic pressure [4]: 5250 psi |
